Results from patent US20020088029A1, “Plant transformation methods” (priority 1998, published 2002).

Experiments:
cell line HE/89 = assay: DNA fragmentation (DNA ladders) in maize cells inoculated with Agrobacterium; assay type: cell-based, Zea mays L.; details: HE/89 cells inoculated with Agrobacterium, agent added
Method: In order to determine the mechanism of cell death induced by Agrobacterium in maize tissues, genomic DNA is extracted from plant suspension cells harvested 24 or 48 hours after inoculation with Agrobacterium. Exposure to Agrobacterium causes DNA fragmentation in both maize lines, with a pattern characteristic of internucleosomal fragmentation, which is considered an early hallmark of programmed cell death. […] Furthermore, maize cells undergoing programmed cell death could not induce cell death of fresh maize embryogenic tissues.
Further evidence for Agrobacterium inducing DNA fragmentation is obtained by investigating the sensitivity of the process to Zn^2+ and Ca^2+. […] These characteristics are fully consistent with the effect of these divalent cations on the endogenous endonucleases responsible for DNA cleavage during apoptosis in animal system. The intensity of the ladder also is decreased by addition of cycloheximide, evidence that the process requires de novo gene expression. […] Fragmentation of DNA during apoptosis is also detected in situ by reagents that react with the exposed hydroxyls on the nucleosome units. 12 day old maize embryos from a proprietary elite line of Lancaster parentage are inoculated with LBA4404 and plated on DG4 medium supplemented with chloramben. Koziel, M.G., & al. 1993. Bio/Technology 11: 194-200. Apoptotic cells are detected by in situ staining with TACS-1 kit (Trevigen), which involves end labeling the DNA fragments by the klenow enzyme using dNTP conjugated to a detectable marker, giving a dark insoluble precipitate indicative of genomic fragmentation. Cullivier, O., Pirianov, G., Kleuser, B., Vanek, P.G., Coso, O.A., Gutking, J.S. and Spiegel, S. (1996) Nature 381, 800-803. Embryos are soaked in 3.7% formadehyde solution and processed as described by the manufacturer. To detect genomic DNA cleavage in situ, fixed embryos are treated with the TACS-1 kit. Fixed cross-sections are first treated with proteinase K for 5 min at room temperature and then dipped for 5 min into 2% hydrogen peroxide to remove endogenous peroxidase. […]

[1] = tested on: HE/89 maize friable embryogenic callus
Method: The following experiments employ maize inbred lines (Zea mays L.) HE/89 and a line here designated as Elite 1. […] Suspension culture of Elite 1 is initiated from friable embryogenic callus selected from immature embryos. The HE/89 line is grown in a modified liquid N6 medium amended with 500 mg/l Bacto tryptone, 30 g/l sucrose and 0.5 mg/l 2,4-dichlorophenoxy acetic acid (2,4-D) (N6M). The Elite 1 line is grown in N6 liquid medium (Chu et al., 1975) supplemented with 30 g/l sucrose and 2 mg/l 2,4-D (2N63S). The Nicotiana tabacum cell line NT-1 grown in Murashige and Skoog medium supplemented with 2 mg/l of 2,4-D and sucrose (30 g/l) (MS3S) is used as an Agrobacterium-susceptible control. Suspension cultures are maintained in liquid medium on a rotary shaker (120 rpm) and are subcultured every 7 days.
Bacteria are grown in YP medium (5 g/L yeast extract, 10 g/l peptone, 5 g/l NaCl, pH 6.8) for 24 hr at 28° C. […]
Friable embryogenic callus of HE/89 maize and of a proprietary elite inbred maize maintained in liquid medium are incubated with Agrobacterium for 10 min, 1 hr, 24 hr or 48 hrs prior to transfer to cefotaxim-containing medium. […] The presence or absence of necrosis is scored 2, 4 and 7 days after inoculation and the relative intensity of necrosis is expressed as follow: +, rare formation of necrosis; ++, weak necrosis; +++, strong necrosis; ++++, very strong necrosis.

maize embryos = assay: Inoculation of maize embryos with LBA4404 with or without silver nitrate, callus initiation; assay type: cell-based
Method: Inhibition of Agrobacterium-induced programmed cell death Preparation of tissues for inoculation with Agrobacterium: Immature embryos (1.2 to 2.2 mm in length) are aseptically excised 14-15 days after pollination from surface-sterilized, greenhouse-grown ears and plated scutellum up on callus initiation medium, 2DG4+5 mg/l chloramben (2DG4-5Chl).
Immature embryos are sterilized as described above and plated on callus initiation medium (2DG4-5Chl) and cultured therein for 1 to 7 days. The resulting tissue is used as samples for inoculation.
Agrobacterium is grown for 3 days on YP medium (5 g/l yeast extract, 10 g/l peptone, 5 g/l NaCl, 15 g/l agar, pH 6.8) supplemented with 50 mg/l spectinomycin and 10 mg/l tetracycline. Bacteria are collected with a loop and suspended in N6 liquid medium at a density ranging from 10^9 to 5 10^9 cells/ml. Agrobacterium cells can also be collected from an overnight culture in YP medium and resuspended in N6 liquid medium.
Maize tissues prepared as described above are inoculated with Agrobacterium. […] Tissues are also inoculated with a 5 μl drop 10^9 to 5×10^9 cells/ml of an Agrobacterium suspension placed on the top of the tissue.

maize type I callus = assay: Inoculation of maize type I callus with or without silver nitrate, survival of tissues; assay type: cell-based; details: ½ month old type I callus, co-inoculation 2DG4 + AgNO3, transfer 2DG4 + AgNO3 + Cef, 2 weeks
tobacco leaf discs = details: silver nitrate present during co-cultivation; LBA4404(GIGUP) 10^9 cells/ml

SMILES: [Zn+2] [Zn^2+]
- intensity of DNA ladders (genomic fragmentation) (cell line HE/89): markedly reduced genomic fragmentation

SMILES: [Ca+2] [Ca^2+]
- intensity of DNA ladders (genomic fragmentation) (cell line HE/89): increased the intensity of DNA ladders

SMILES: CO/N=C(\C(=O)N[C@@H]1C(=O)N2C(C(=O)O)=C(COC(C)=O)CS[C@H]12)c1csc(N)n1 [cefotaxime]
- necrosis of maize tissue [1]: does not cause the maize tissue to become necrotic

SMILES: O=[N+]([O-])[O-].[Ag+] [AgNO3, silver nitrate]
- embryos able to produce embryogenic calli (maize embryos; embryos plated on medium containing silver nitrate after Agrobacterium inoculation): About 50%
- Score (callus initiation) (maize embryos; no pretreatment, co-inoculation 2DG4, transfer 2DG4 + AgNO3 + Cef, LBA4404 (GIGUP) 10^9 cells/ml, two weeks after inoculation): 30%
- Score (survival of tissues) (maize type I callus; pretreatment 2DG4 + AgNO3): 95%
- Score (survival of tissues) (maize type I callus; pretreatment 2DG4): 75%
- GUS activity in tobacco leaves (Agrobacterium virulence) (tobacco leaf discs): No significant decrease

SMILES: C[C@@H]1C[C@@H]([C@H](O)CC2CC(=O)NC(=O)C2)C(=O)[C@@H](C)C1 [cycloheximide]
- intensity of DNA ladders (genomic fragmentation) (cell line HE/89): decreased
